Data published in US20250101052A1, “COMPOUND FOR EGFR KINASE INHIBITOR, COMPOSITION, AND USE THEREOF” (INNOVATION INSTITUTE FOR ARTIFICIAL INTELLIGENCE IN …, priority 2021, published 2025).
pIC50: −log10 of the molar value. Like-named read-outs stand apart in the source and are kept apart here.

Columns and labels:
[1] = molecular target: EGFR^L858R/T790M/C797S kinase (Homo sapiens (Human), UniProt P00533, C797S/L858R/T790M); experiment: EGFR^L858R/T790M/C797S kinase inhibitory activity experiment; assay type: biochemical; details: in vitro
Sequence of EGFR^L858R/T790M/C797S kinase (P00533 25-1210 T790M/C797S/L858R): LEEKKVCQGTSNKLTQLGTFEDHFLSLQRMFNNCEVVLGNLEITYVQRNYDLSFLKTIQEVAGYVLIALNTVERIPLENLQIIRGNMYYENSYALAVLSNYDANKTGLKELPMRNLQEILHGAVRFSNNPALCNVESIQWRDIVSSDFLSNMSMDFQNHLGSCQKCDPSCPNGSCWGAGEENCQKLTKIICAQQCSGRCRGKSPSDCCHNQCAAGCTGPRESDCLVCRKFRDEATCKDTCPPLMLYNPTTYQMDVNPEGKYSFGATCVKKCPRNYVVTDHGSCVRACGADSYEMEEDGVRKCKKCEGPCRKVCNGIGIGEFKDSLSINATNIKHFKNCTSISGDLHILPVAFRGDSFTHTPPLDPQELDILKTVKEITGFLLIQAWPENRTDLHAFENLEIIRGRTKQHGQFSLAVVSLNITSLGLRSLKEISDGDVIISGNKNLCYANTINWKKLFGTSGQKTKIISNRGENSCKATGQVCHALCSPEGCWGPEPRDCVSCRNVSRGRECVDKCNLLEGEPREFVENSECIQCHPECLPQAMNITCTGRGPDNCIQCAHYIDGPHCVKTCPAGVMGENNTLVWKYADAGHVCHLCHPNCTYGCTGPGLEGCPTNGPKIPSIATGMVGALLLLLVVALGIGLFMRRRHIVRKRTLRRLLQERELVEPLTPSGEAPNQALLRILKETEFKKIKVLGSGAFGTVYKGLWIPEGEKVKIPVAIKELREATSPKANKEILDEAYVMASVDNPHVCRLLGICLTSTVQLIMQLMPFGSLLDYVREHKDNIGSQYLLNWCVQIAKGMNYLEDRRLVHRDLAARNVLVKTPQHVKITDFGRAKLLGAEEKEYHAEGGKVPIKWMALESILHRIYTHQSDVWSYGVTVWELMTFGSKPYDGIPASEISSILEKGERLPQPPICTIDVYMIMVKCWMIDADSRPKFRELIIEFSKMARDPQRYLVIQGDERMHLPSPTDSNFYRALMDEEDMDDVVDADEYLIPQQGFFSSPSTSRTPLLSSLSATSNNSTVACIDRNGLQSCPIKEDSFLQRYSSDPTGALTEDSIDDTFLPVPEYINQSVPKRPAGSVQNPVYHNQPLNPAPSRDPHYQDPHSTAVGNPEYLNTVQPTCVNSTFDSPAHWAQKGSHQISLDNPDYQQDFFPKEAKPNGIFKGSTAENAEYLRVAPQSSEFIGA
How it was run: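 Human EGFR L858R/T790M/C797S mutant preincubated 10 min with compound (10-point dilution from 1 μM), then reacted 60 min at room temperature with ATP and kinase substrate 22. Substrate conversion read by Caliper mobility shift. % inhibition normalized to no-enzyme and no-compound wells, with IC50 from variable-slope log(inhibitor) fit.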

BaF3-EGFR^WT cells = experiment: BaF3 cell proliferation inhibition experiment (CCK-8); assay type: cell-based; details: Mus musculus, read-out: BaF3-EGFR^WT (IC50 nM)
Method: (§1) A. Cell line: BaF3 cells with stable overexpression of wild-type genes are named BaF3-EGFR^WT, and BaF3 cells with stable overexpression of EGFR^L858R/T790M/C797S EGFR^del19/T790M/C797S EGFR^L858R/C797S and EGFR^del19/C797S mutant genes are named BaF3-EGFR^L858R/T790M/C797S BaF3-EGFR^del19/T790M/C797S BaF3-EGFR^L858R/C797S and BaF3-EGFR^del19/C797S cells, respectively. Mediums:
(§2) a) The medium was preheated in a 37° C. water bath.
(§3) b) The cryopreservation tube was taken from the liquid nitrogen tank, quickly placed in a 37° C. water bath, and melted completely within 1 minute.
(§4) c) The cell suspension was transferred to a 15 mL centrifuge tube containing a 10 mL medium and centrifuged at 1000 rpm for 4 minutes.
(§5) d) The supernatant was discarded, the cells were resuspended in a 1 mL medium and transferred to a […] culture dish containing a 10 mL medium, 20% serum and 50 ng/mL EGF were administered to the first-generation medium, and culture was conducted in a 37° C. and 5% CO2 incubator.
(§6) b) The cells in the culture dish were blown evenly with a 5 mL pipette, and 500 μL of the cells were pipetted out to be inoculated into a new […] culture dish and cultured in a 37° C. and 5% CO2 incubator.
(§7) a) The compound to be tested (10 mM stock solution) was diluted with 100% DMSO to 1 mM, and diluted with a culture solution in a 24-well plate to prepare of a working solution of 2 μM concentration.
(§8) b) The 2 μM working solution was diluted with a triple dilution method to obtain working solutions with approximate concentrations of 2 μM, 600 nM, 200 nM, 60 nM, and 20 nM.
(§9) a) The cells at the logarithmic growth phase were centrifuged at 1000 rpm for 4 minutes, resuspended with a medium (containing 10% serum and 50 ng/mL EGF), and counted.
(§10) b) The cells were inoculated into a 96-well plate with a cell density of 4000 cells/well, and placed in a 37° C. and 5% CO2 incubator for culture for 12 hours.
(§11) a) The prepared compound was added to a 96-well plate, with 100 μL per well. The final concentrations were 1 μM, 300 nM, 100 nM, 30 nM, 10 nM, and 0 nM, and the final concentration of DMSO was 0.2%. A medium served as a blank control.
(§12) b) The cells were placed in 37° C. and 5% CO2 incubator for culture for 72 hours.
(§13) (5) Cell Viability Testing
(§14) a) The 96-well cell culture plate was taken out, and 20 μL of a CCK-8 reagent (Cell Counting Kit-8, Topscience, Catalog No. C0005) was added in the dark.
(§15) b) Mixing well was conducted on a horizontal shaking table at a room temperature at 100 rpm for 5 minutes.
(§16) c) The culture plate was placed in a 37° C. constant-temperature incubator for incubation.
(§17) The data was analyzed using GraphPad Prism 8.0 software to obtain a fitted curve of activity of the compounds. The IC50 of the compounds was fitted from nonlinear regression equation.

[2] = test system: BaF3-EGFR^del19/T790M/C797S cells; experiment: as above; assay type: cell-based; details: Ba/F3 EGFR-Del19/T790M/C797S, read-out: BaF3-EGFR^del19 /T790M/C797S (IC50 nM)
Method: as §1, §2, §3, §4, §5, §6, §7, §8, §9, §10, §11, §12, §13, §14, §15, §16, §17

Row | Structure (SMILES) | pIC50 [1] | IC50 (BaF3-EGFR^WT cells; BaF3, 72 h) | IC50 ([2]; 72 h) | IC50 (BaF3-EGFR^WT cells; BaF3, cell proliferation, 72 hours) | IC50 ([2]; cell proliferation, 72 hours)
1 | CCc1cc(Nc2ncc(Cl)c(Nc3ccc(C)c(C)c3P(C)(C)=O)n2)c(OC)cc1N1CCC(N2C[C@H]3CC[C@@H](C2)N3C)CC1 [Compound 51, (6-((5-chloro-2-((5-ethyl-2-methoxy-4-(4-((1R,5S)-8-methyl-3,8-diazabicyclo[3.2.1]octan-3-yl)piperidin-1-yl)phenyl)amino)pyrimidin-4-yl)amino)-2,3-dimethylphenyl)dimethylphosphine oxide] | 10.34 | 1180 nM | 29.9 nM | – | –
2 | CCc1cc(Nc2ncc(Cl)c(Nc3ccc(C)c(C)c3P(C)(C)=O)n2)c(OC)cc1N1CCC(N2CCN(C)CC2)CC1 [Comparative Compound A, reference compound] | 9.27 | – | – | 1570 nM | 66.3 nM
3 | CCc1cc(Nc2ncc(Cl)c(Nc3ccc(C)c(C)c3P(C)(C)=O)n2)c(OC)cc1N1CC2(CCN(C)CC2)C1 [Compound 24, (6-((5-Chloro-2-((5-ethyl-2-methoxy-4-(7-methyl-2,7-diazaspiro[3.5]non-2-yl)phenyl)amino)pyrimidin-4-yl)amino)-2,3-dimethylphenyl)dimethylphosphine oxide] | 9.26 | 5770 nM | 128 nM | – | –
4 | CCc1cc(Nc2ncc(Cl)c(Nc3ccc(C)c(C)c3P(C)(C)=O)n2)c(OC)cc1N1CCC2(CC1)CC(N(C)C)C2 [Compound 6, (6-((5-chloro-2-((4-(2-(dimethylamino)-7-azaspiro[3.5]nonan-7-yl)-5-ethyl-2-methoxyphenyl)amino)pyrimidin-4-yl)amino)-2,3-dimethylphenyl)dimethylphosphine oxide] | 9.06 | – | – | – | –
